Measured values taken from paper PMC8162404, “Proteomimetic surface fragments distinguish targets by function” (Chemical Science, 2020).
Like-named read-outs stand apart in the source and are kept apart here.

What was measured:
Experiment in all cases: Pull-down assay with immobilized protein and LSM libraries
CaM = target: T1, CaM (Bos taurus, UniProt P62157); type: binding, bovine; conditions: 1:2 stoichiometry assumed, read-out: Surface mapping KD (apparent)
T1 construct: made in house; host or cells: E. coli BL21 (DE3)
Summary of the method: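 His-tagged protein immobilized on Co-NTA resin, equilibrated 30 min at room temperature with LSM sublibraries (64 members, […]), equimolar protein to total probe. CaM buffer: 20 mM HEPES pH 7.4, 150 mM NaCl, 5 mM CaCl2. Bound fractions from HPLC-MS loss of unbound probe versus protein-free resin control; Kd derived.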

Gal-1 = target: T2, Gal-1 (Homo sapiens, UniProt P09382); type: binding; conditions: 1:1 binding assumed, read-out: Surface mapping KD (apparent)
T2 construct: made in house; host or cells: E. coli BL21(DE3)
T2 sequence (P09382 whole entry): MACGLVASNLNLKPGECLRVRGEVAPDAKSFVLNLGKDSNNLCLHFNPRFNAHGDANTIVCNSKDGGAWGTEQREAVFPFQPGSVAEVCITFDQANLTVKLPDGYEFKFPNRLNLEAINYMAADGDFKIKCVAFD
Summary of the method: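 His-tagged protein immobilized on Co-NTA resin (64 µM) in 20 mM HEPES pH 7.4, 150 mM NaCl, equilibrated 30 min at room temperature with foldamer LSM sublibraries at equimolar total concentration. Unbound fractions quantified by HPLC-MS versus protein-free resin control; apparent KD assumes 1:1 binding.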

S100A4 = target: T3, S100A4 (Homo sapiens, UniProt P26447); type: binding; conditions: 1:1 binding assumed, read-out: Surface mapping KD (apparent)
T3 construct: made in house; host or cells: Escherichia coli BL21(DE3)
T3 sequence (P26447 whole entry): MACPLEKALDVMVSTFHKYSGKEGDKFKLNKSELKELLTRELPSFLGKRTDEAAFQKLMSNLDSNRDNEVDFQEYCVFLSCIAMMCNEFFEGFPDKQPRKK
Summary of the method: (§1)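 Buffers were HEPES pH 7.4 with 150 mM NaCl, plus 1 mM TCEP and 1 mM CaCl2 (50 mM HEPES) for S100A4 and S100B, 1 mM TCEP for Gal-1, and no additive for RecQ-WH. Immobilized protein at 64 µM was equilibrated 30 min with the LSM sublibrary, and unbound probes were measured by LC-MS.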

S100B = target: T4, S100B (Homo sapiens, UniProt P04271); type: binding; conditions: 1:1 binding assumed, read-out: Surface mapping KD (apparent)
T4 construct: made in house; host or cells: Escherichia coli BL21(DE3)
T4 sequence (P04271 1-92): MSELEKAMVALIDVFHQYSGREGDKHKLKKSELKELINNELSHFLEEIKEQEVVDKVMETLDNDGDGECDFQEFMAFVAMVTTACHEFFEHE
Summary of the method: as §1

SMILES	Kd (CaM; H12 library) [µM]	Kd (Gal-1; H12 library) [µM]	Kd (S100A4; H12 library) [µM]	Kd (S100B; H12 library) [µM]	Kd (CaM; H14 library) [µM]	Kd (Gal-1; H14 library) [µM]	Kd (S100A4; H14 library) [µM]	Kd (S100B; H14 library) [µM]
N=C(N)NCCC[C@@H](CC(=O)N[C@H]1CCC[C@@H]1C(=O)N[C@H]1CCC[C@@H]1C(N)=O)NC(=O)[C@H]1CCC[C@@H]1NC(=O)[C@H]1CCC[C@@H]1NC(=O)C[C@H](CCCNC(=N)N)NC(=O)[C@H]1CCC[C@@H]1NC(=O)[C@H]1CCC[C@@H]1N [H12 RR]	123	181	210	89				
N=C(N)NCCC[C@@H](CC(=O)N[C@H]1CCC[C@@H]1C(=O)N[C@H]1CCC[C@@H]1C(=O)N[C@H](CC(=O)N[C@H]1CCC[C@@H]1C(=O)N[C@H]1CCC[C@@H]1C(N)=O)Cc1c[nH]c2ccccc12)NC(=O)[C@H]1CCC[C@@H]1NC(=O)[C@H]1CCC[C@@H]1N [H12 RW]	19	126	95	25				
N=C(N)NCCC[C@@H](CC(=O)N[C@H]1CCC[C@@H]1C(=O)N[C@H]1CCC[C@@H]1C(=O)N[C@H](CC(=O)N[C@H]1CCC[C@@H]1C(=O)N[C@H]1CCC[C@@H]1C(N)=O)Cc1ccc(O)cc1)NC(=O)[C@H]1CCC[C@@H]1NC(=O)[C@H]1CCC[C@@H]1N [H12 RY]	381	198	400	89				
CC(C)[C@@H](CC(=O)N[C@H]1CCC[C@@H]1C(=O)N[C@H]1CCC[C@@H]1C(=O)N[C@H](CC(=O)N[C@H]1CCC[C@@H]1C(=O)N[C@H]1CCC[C@@H]1C(N)=O)Cc1ccccc1)NC(=O)[C@H]1CCC[C@@H]1NC(=O)[C@H]1CCC[C@@H]1N [H12 VF]	128	388	95	45				
CC[C@H](C)[C@@H](CC(=O)N[C@H]1CCC[C@@H]1C(=O)N[C@H]1CCC[C@@H]1C(N)=O)NC(=O)[C@H]1CCC[C@@H]1NC(=O)[C@H]1CCC[C@@H]1NC(=O)C[C@@H](NC(=O)[C@H]1CCC[C@@H]1NC(=O)[C@H]1CCC[C@@H]1N)C(C)C [H12 VI]	164	469	190	92				
CC(C)C[C@@H](CC(=O)N[C@H]1CCC[C@@H]1C(=O)N[C@H]1CCC[C@@H]1C(N)=O)NC(=O)[C@H]1CCC[C@@H]1NC(=O)[C@H]1CCC[C@@H]1NC(=O)C[C@@H](NC(=O)[C@H]1CCC[C@@H]1NC(=O)[C@H]1CCC[C@@H]1N)C(C)C [H12 VL]	164	469	190	92				
CC(C)[C@@H](CC(=O)N[C@H]1CCC[C@@H]1C(=O)N[C@H]1CCC[C@@H]1C(=O)N[C@H](CC(=O)N[C@H]1CCC[C@@H]1C(=O)N[C@H]1CCC[C@@H]1C(N)=O)Cc1c[nH]c2ccccc12)NC(=O)[C@H]1CCC[C@@H]1NC(=O)[C@H]1CCC[C@@H]1N [H12 VW]	56	346	184	31				
CC(C)[C@@H](CC(=O)N[C@H]1CCC[C@@H]1C(=O)N[C@H]1CCC[C@@H]1C(=O)N[C@H](CC(=O)N[C@H]1CCC[C@@H]1C(=O)N[C@H]1CCC[C@@H]1C(N)=O)Cc1ccc(O)cc1)NC(=O)[C@H]1CCC[C@@H]1NC(=O)[C@H]1CCC[C@@H]1N [H12 VY]	247	413	392	210				
NC(=O)[C@H]1CCC[C@@H]1NC(=O)[C@H]1CCC[C@@H]1NC(=O)C[C@H](Cc1ccccc1)NC(=O)[C@H]1CCC[C@@H]1NC(=O)[C@H]1CCC[C@@H]1NC(=O)C[C@H](Cc1c[nH]c2ccccc12)NC(=O)[C@H]1CCC[C@@H]1NC(=O)[C@H]1CCC[C@@H]1N [H12 WF]	9	117	135	7				

The next lines start with the values.

Kd (CaM; H12 library) [µM]	Kd (Gal-1; H12 library) [µM]	Kd (S100A4; H12 library) [µM]	Kd (S100B; H12 library) [µM]	Kd (CaM; H14 library) [µM]	Kd (Gal-1; H14 library) [µM]	Kd (S100A4; H14 library) [µM]	Kd (S100B; H14 library) [µM]	SMILES
134	174	164	18					CC[C@H](C)[C@@H](CC(=O)N[C@H]1CCC[C@@H]1C(=O)N[C@H]1CCC[C@@H]1C(N)=O)NC(=O)[C@H]1CCC[C@@H]1NC(=O)[C@H]1CCC[C@@H]1NC(=O)C[C@H](Cc1c[nH]c2ccccc12)NC(=O)[C@H]1CCC[C@@H]1NC(=O)[C@H]1CCC[C@@H]1N [H12 WI]
27	200	105	21					CC(C)C[C@@H](CC(=O)N[C@H]1CCC[C@@H]1C(=O)N[C@H]1CCC[C@@H]1C(N)=O)NC(=O)[C@H]1CCC[C@@H]1NC(=O)[C@H]1CCC[C@@H]1NC(=O)C[C@H](Cc1c[nH]c2ccccc12)NC(=O)[C@H]1CCC[C@@H]1NC(=O)[C@H]1CCC[C@@H]1N [H12 WL]
413	151	56	8					NC(=O)[C@H]1CCC[C@@H]1NC(=O)[C@H]1CCC[C@@H]1NC(=O)C[C@H](Cc1c[nH]c2ccccc12)NC(=O)[C@H]1CCC[C@@H]1NC(=O)[C@H]1CCC[C@@H]1NC(=O)C[C@H](Cc1c[nH]c2ccccc12)NC(=O)[C@H]1CCC[C@@H]1NC(=O)[C@H]1CCC[C@@H]1N [H12 WW]
				275	343	304	435	CC(C)C[C@@H](CC(=O)N[C@H]1CCCC[C@@H]1C(=O)N[C@H]1CCCC[C@@H]1C(=O)N[C@@H](CCC(N)=O)CC(=O)N[C@H]1CCCC[C@@H]1C(N)=O)NC(=O)[C@H]1CCCC[C@@H]1N [H14 LQ]
